Experimental data taken from publication PMC10208956, “Microbial peptides activate tumour-infiltrating lymphocytes in glioblastoma” (Nature, 2023).

Assays:
Format in all cases: cell-based, human
[1] = system: bacteria/microbiota-reactive CFSEdim CD4+ TILs; experiment: Proliferation of expanded CFSEdim CD4+ TILs that responded to the bacteria/microbiota peptide pool; conditions: 5 days; 4 replicate wells; Fig. 4d
TCC8F7 = experiment: Proliferation of TCC8F7, 3H-thymidine (SI), 3 days; conditions: irradiated autologous PBMCs as APCs, Extended Data Fig. 5d
[2] = system: autologous glioblastoma cells; experiment: T cell cytotoxicity assay of TCC88 against the autologous tumour cell line; conditions: TCC88 stimulated with 2 µM peptide for 72 h; E:T 1:1 and 5:1; 24 h; duplicates; Fig. 3f
Source text: Fig. 3 Bacteria-derived and microbiota-derived peptides can stimulate TCC88 as well as the tumour antigen. a, Peptides with the highest predicted stimulatory scores were identified by searching various databases (see Methods). Numbers of unique 10-mer peptides within each database, synthesized peptides, TCC88 stimulatory peptides and the corresponding percentage of stimulatory peptides within each database are shown. […] Cytokine and chemokine secretion of TCC88 was examined and compared upon stimulation with these three different antigens. A specific amount of each cytokine and chemokine (pg ml^−1) was calculated by subtracting the cytokines in the negative control cultures (no peptide control). f, Cytotoxicity of TCC88 against the autologous tumour cell line after stimulation with 2 µM of SIN3A* and HGM3 (data represent the mean percentage of two replicate wells). E:T, effector to target. g, TCC88 was tested with HGM3 (10 µM) or SIN3A* (10 µM) peptides or both together (each 10 µM), and ^3H-thymidine incorporation was measured after 3 days (data represent the mean SI value of three replicate wells ± s.e.m.). Also see Extended Data Figs. 3 and 4. Source data […]

TCC88 = experiment: Cytokine and chemokine secretion of TCC88 after peptide stimulation; conditions: TCC88 supernatant after peptide stimulation; no peptide control subtracted; Fig. 3e
Source text: Fig. 3 Bacteria-derived and microbiota-derived peptides can stimulate TCC88 as well as the tumour antigen. a, Peptides with the highest predicted stimulatory scores were identified by searching various databases (see Methods). Numbers of unique 10-mer peptides within each database, synthesized peptides, TCC88 stimulatory peptides and the corresponding percentage of stimulatory peptides within each database are shown. […] Cytokine and chemokine secretion of TCC88 was examined and compared upon stimulation with these three different antigens. A specific amount of each cytokine and chemokine (pg ml^−1) was calculated by subtracting the cytokines in the negative control cultures (no peptide control). f, Cytotoxicity of TCC88 against the autologous tumour cell line after stimulation with 2 µM of SIN3A* and HGM3 (data represent the mean percentage of two replicate wells). E:T, effector to target. g, TCC88 was tested with HGM3 (10 µM) or SIN3A* (10 µM) peptides or both together (each 10 µM), and ^3H-thymidine incorporation was measured after 3 days (data represent the mean SI value of three replicate wells ± s.e.m.). Also see Extended Data Figs. 3 and 4. Source data
Supernatants from each experiment were harvested a day before adding thymidine and frozen at −20 °C. Cytokines were measured using ELISA for human IFNγ ELISA MAX (BioLegend), human GM-CSF DuoSet ELISA (R&D Systems) and bead-based assays. A Synergy H1 hybrid multi-mode reader (Agilent) was used to measure the absorbance. The LEGENDplex Multi-analyte Flow Assay kit (BioLegend) is a 13-plex human TH cytokine panel, which includes IFNγ, TNF, IL-2, IL-4, IL-5, IL-6, IL-9, IL-10, IL-13, IL-17A, IL-17F, IL-21 and IL-22. […] LSR Fortessa Flow Cytometer (BD Biosciences) was used to measure cytokines, and data were analysed using FlowJo (Tree Star). The Human XL Cytokine Luminex Performance Assay Fixed Panel (R&D Systems) contains 45 analytes covering a broad range of various chemokines and cytokines.

With Ac-QPVEFNHAIHYVN-NH2 [SIN3A*] the “recognition by CD4+ TILs pre-stimulated with the bacteria/microbiota peptide pool, by proliferation and/or GM-CSF secretion (in words)” value [1] was “recognized”, the “response of TCC8F7 (in words)” value (TCC8F7) was “strongly responds” and the “cytotoxic activity against autologous glioblastoma cells (in words)” value [2] was “comparable”. The CCL20/MIP-3α (TCC88) was 15.37 pg/mL, the “CD40 Ligand” value (TCC88) was 2926.92 pg/mL and the CXCL1/GROα (TCC88) was 71.75 pg/mL. For the same substance, the CXCL2/GROβ (TCC88) was 125.05 pg/mL, the CXCL8/IL-8 (TCC88) was 0 pg/mL and the CXCL10/IP-10 (TCC88) was 22.77 pg/mL. The “Flt-3 Ligand” value (TCC88) was 138.99 pg/mL, the Fractalkine (TCC88) was 649.3 pg/mL and the GM-CSF (TCC88) was 12306.4 pg/mL. For the same substance, the “Granzyme B” value (TCC88) was 3726.29 pg/mL, the IFN-α (TCC88) was 6.21 pg/mL and the IFN-γ (TCC88) was 2158.92 pg/mL. For the same substance, the IL-1rα (TCC88) was 2936.96 pg/mL, the IL-1α (TCC88) was 18.71 pg/mL and the IL-1β (TCC88) was 19.49 pg/mL. It also gave an IL-2 (TCC88) of 1202.18 pg/mL, an IL-3 (TCC88) of 486.43 pg/mL and an IL-4 (TCC88) of 244.81 pg/mL. For the same substance, the IL-5 (TCC88) was 13.04 pg/mL, the IL-6 (TCC88) was 272.8 pg/mL and the IL-7 (TCC88) was 2.58 pg/mL. For the same substance, the IL-10 (TCC88) was 469.8 pg/mL, the IL-12p70 (TCC88) was 34.04 pg/mL and the IL-13 (TCC88) was 1544.08 pg/mL. For the same substance, the IL-15 (TCC88) was 2.67 pg/mL, the IL-17A (TCC88) was 3.91 pg/mL and the IL-17E/IL-25 (TCC88) was 6.04 pg/mL. The IL-33 (TCC88) was 26.68 pg/mL and the TNF-α (TCC88) was 10260.2 pg/mL.
